Here are results for 3 substances from patent publication US20120035247A1, “RNA Interference Mediated Inhibition of Signal Transducer and Activator of Transcription 6 (STAT6) Gene Expression Using Short Interfering Nucleic Acid (siNA)” (Merck Sharp & Dohme Corp., priority 2009, published 2012).

One may read the IC50 as the concentration that gives 50% inhibition. A lower IC50 goes with greater potency in that assay.

[invAb] = inverted abasic unit; m = 2'-O-methyl; r = 2'-OH (RNA); f = 2'-fluoro

Data set [1] concerns STAT6 mRNA. As to the kind of experiment: STAT6 siNA screen and dose response in human A549 cells, STAT6 mRNA by quantitative RT-PCR (Taqman). It is filed as cell-based. The following applies: for % KD STAT6 mRNA 10 nM / IC50: Table 4, human A549 cells; for % KD STAT6 mRNA 10 nM / IC50 / % KD STAT6: mean ± S.D.; for % KD STAT6 10 nM: Table 5, A549 cells, three experiments, mean ± standard deviation; for % KD STAT6: human A549 cells, 10 nM siNA, 24 hrs, normalized to GAPDH and non-targeting control, n = 3. The procedure, abridged:
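A549 cells were transfected with siNA–RNAiMax complexes at a final 10 nM siNA and incubated 24 h without a medium change. STAT6 mRNA was measured by TaqMan qRT-PCR on cell lysates. Knock-down was calculated by the comparative Ct (ΔΔCt) method against the non-targeting control siNA, with relative expression taken as 2^−ΔΔCt.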

The test system of data set [2] is human STAT4 mRNA transcript. As to the kind of experiment: STAT4 specificity screen in human A549 cells, STAT4 mRNA by quantitative RT-PCR. It is filed as cell-based. The following applies: three experiments, mean ± standard deviation. How it is done:
A549 (human; ATCC cat# CCL-185): Cells were cultured at 37° C. in the presence of 5% CO2 and grown in Ham's F12K medium with 2 mM L-glutamine adjusted to contain 1.5 g/L sodium bicarbonate and supplemented with fetal bovine serum at a final concentration of 10%, 100 μg/mL of streptomycin, and 100 U/mL penicillin.
A series of probes and primers were used to detect the various mRNA transcripts of the genes of 13-Actin (human cell line only), and of STATE and GAPDH in mouse and human cell lines. All Taqman probes and primers for the experiments here-in described were supplied as pre-validated sets by Applied Biosystems, Inc. (see Table 2).
The assays were performed on an ABI 7900 instrument, according to the manufacturer's instructions. A TaqMan Gene Expression Master Mix (provided in the Cells-to-CTT™, Applied Biosystems, Cat #4399002) was used. The PCR reactions were carried out at 50° C. for 2 min, 95° C. for 20 min followed by 40 cycles at 95° C. for 15 secs and 60° C. for 1 min.
The expression level of the gene of interest and % knock-down was calculated using Comparative Ct method:
ΔΔCt=ΔCt(Target siNA)−ΔCt(NTC)
Relative expression level=2^−ΔΔCt
The non-targeting control siNA was, unless otherwise indicated, chosen as the value against which to calculate the % knock-down, because it is the most relevant control.
The siNAs from Table 4 were tested in human A549 cell line at a lower concentration (1 nM versus the original screening concentration of 10 nM) to determine the effect of the STATE siRNAs on the mRNA transcript of human STAT4.

For the substance “29990-DC: STAT6 siNA duplex; sense SEQ ID NO: 44, antisense SEQ ID NO: 45; target GUGAAAGCCUGGUGGACAU, site 954 (sense GUGAAAGCCUGGUGGACAUTT; antisense AUGUCCACCAGGCUUUCACUU; sense: DNA at AGT, 2'-fluoro at CU, [invAb] at 5' end, 3' end, backbone not given here; antisense: sugars from the 5' end rrrfffmffmmmfffffmfmm, backbone not given here) [STAT6 siNA duplex; target GUGAAAGCCUGGUGGACAU, site 954]”, in data set [1], the “% KD STAT6 mRNA 10 nM” value is recorded as 71.7 ± 1.8%, the IC50 turned out to be 23 ± 8.7 pM, the “% KD STAT6 10 nM” value turned out to be 71.7 ± 1.8% and the “% KD STAT6” value is given as 71.7 ± 1.8%. Moreover, in data set [2], the “% KD STAT4 1 nM” value is given as −2.1 ± 25.7%.
With “29997-DC: STAT6 siNA duplex; sense SEQ ID NO: 58, antisense SEQ ID NO: 59; target CUACCAUGGUGCCUUCUUA, site 2262 (sense CUACCAUGGUGCCUUCUUATT; antisense UAAGAAGGCACCAUGGUAGUU; sense: DNA at AGT, 2'-fluoro at CU, [invAb] at 5' end, 3' end, backbone not given here; antisense: sugars from the 5' end rrrmmmmmfmffmfmmfmmmm, backbone not given here) [STAT6 siNA duplex; target CUACCAUGGUGCCUUCUUA, site 2262]”, in data set [1], the “% KD STAT6 mRNA 10 nM” value was 68.1 ± 6.2%, half-maximal inhibition (IC50) was put at 18.1 ± 8.3 pM, the “% KD STAT6 10 nM” value is 68.1 ± 6.2% and the “% KD STAT6” value is on record as 68.1 ± 6.2%. The “% KD STAT4 1 nM” value in data set [2] turned out to be 2.6 ± 25%.
For the substance “30008-DC: STAT6 siNA duplex; sense SEQ ID NO: 80, antisense SEQ ID NO: 81; target CUGCUCUGCUCAGAUGUGA, site 2549 (sense CUGCUCUGCUCAGAUGUGATT; antisense UCACAUCUGAGCAGAGCAGUU; sense: DNA at AGT, 2'-fluoro at CU, [invAb] at 5' end, 3' end, backbone not given here; antisense: sugars from the 5' end rrrfmfffmmmfmmmmfmmmm, backbone not given here) [STAT6 siNA duplex; target CUGCUCUGCUCAGAUGUGA, site 2549]”, in data set [1], the “% KD STAT6 mRNA 10 nM” value stood at 72.6 ± 4.5%, half-maximal inhibition (IC50) required 21.6 ± 12.4 pM, the “% KD STAT6 10 nM” value came out at 72.6 ± 4.5% and the “% KD STAT6” value amounted to 72.6 ± 4.5%. The “% KD STAT4 1 nM” value in data set [2] worked out at 16.4 ± 17%.
